Measurements from ChEMBL document CHEMBL1152177, “Imidazole pyrimidine amides as potent, orally bioavailable cyclin-dependent kinase inhibitors” (Bioorg Med Chem Lett, 2008).

Columns and labels:
[1] = Bioavailability in Han-Wistar rat at 5 umol/kg, po; assay type: ADME, organism-based; conditions: in vivo
[2] = AUC in Han-Wistar rat at 20 umol/kg, po; assay type: ADME, organism-based; conditions: plasma
[3] = Clearance in nude mouse at 2.0 umol/kg, iv; assay type: ADME, organism-based; conditions: in vivo
[4] = Clearance in Han-Wistar rat at 1.0 umol/kg, iv; assay type: ADME, organism-based; conditions: in vivo
[5] = Half life in nude mouse at 2.0 umol/kg, iv; assay type: ADME, organism-based; conditions: in vivo
[6] = AUC in Han-Wistar rat at 1.0 umol/kg, iv; assay type: ADME, organism-based; conditions: plasma
[7] = Volume of distribution at steady state in Han-Wistar rat at 1.0 umol/kg, iv; assay type: ADME, organism-based; conditions: in vivo, read-out: Vdss
[8] = Half life in Han-Wistar rat at 1.0 umol/kg, iv; assay type: ADME, organism-based; conditions: in vivo
[9] = AUC in Han-Wistar rat at 5 umol/kg, po; assay type: ADME, organism-based; conditions: plasma
[10] = Volume of distribution at steady state in nude mouse at 2.0 umol/kg, iv; assay type: ADME, organism-based; conditions: in vivo, read-out: Vdss
[11] = Distribution coefficient, log D of the compound; assay type: physicochemical; conditions: octanol/water
[12] = AUC in nude mouse at 2.0 umol/kg, iv; assay type: ADME, organism-based; conditions: plasma
[13] = Bioavailability in Han-Wistar rat at 20 umol/kg, po; assay type: ADME, organism-based; conditions: in vivo

CNC(=O)c1ccc(Nc2nccc(-c3cnc(C)n3C(C)C)n2)cc1F
bioavailability [1]: 21%
AUC [2]: 13.7 µM·h
clearance [3]: 18.5 mL/min/kg
clearance [4]: 11.9 mL/min/kg
half-life [5]: 16.7 h
AUC [6]: 1.4 µM·h
Vd [7]: 1.7 L/kg
half-life [8]: 5.8 h
AUC [9]: 1.5 µM·h
Vd [10]: 9.5 L/kg
logD [11]: 3
AUC [12]: 1.8 µM·h
bioavailability [13]: 47%
